Assays:
[1] = Urokinase activity after foam drying and storage; format: physicochemical; details: 40wt % sucrose foam
Protocol: (6) Freezer-dried samples of Urokinase were rehydrated with 2 ml of 40wt % sucrose. The solutions were then transferred to 20 ml sterilized glass vials for future preservation by drying. Before drying, the vials were covered with gray slotted rubber stoppers. The vials were dried inside a vacuum chamber. The vials were sitting on the surface of a stainless steel shelf inside the chamber. The shelf temperature was controlled by circulating ethylene glycol/water antifreeze at a controlled temperature inside the shelf. Before the vacuum was applied the shelf temperature was decreased to 5° C. Then the hydrostatic pressure inside the chamber was decreased to 0.5 Torr. Under such a conditions the suspension boiled 30 min. […] Visually, stable dry foams inside the vials under these experimental conditions were formed during 3 hours. After an additional 12 hours of drying at room temperature, the temperature was increased to 45° C. for an additional 24 hours. After that the chamber was filled with the dry N2 gas, the rubber stoppers were pushed down and the vials were sealed with aluminum crimped seal.
The samples were assayed right after drying and after 30 days of storage at 40° C. After drying the Urokinase, activity was 93% of the initial activity. This decrease was associated with the loss of Urokinase during transformation from initial vials to the vials at which the Urokinase was dried. […]

[2] = potency of Amphotericin after foam drying and storage; format: physicochemical
Protocol: (7) Freeze-dried samples of Amphotericine B were rehydrated with 5 ml 40wt % sucrose per vial. Then the solutions were transferred into 50 ml sterilized glass vials for future preservation by drying. Before drying, the vials were covered with gray butyl slotted rubber stoppers. The vials were dried inside a vacuum chamber. The vials were sitting on the surface of a stainless steel shelf inside the chamber. The shelf temperature was controlled by circulating ethylene glycol/water antifreeze at a controlled temperature inside the shelf. Before the vacuum was applied the shelf temperature was decreased to 5° C. The hydrostatic pressure inside the chamber was decreased to 0.5 Torr. Under such a conditions the suspension boiled 30 min. The temperature of the shelf was then slowly (during 30 min) increased to 25° C. Visually, stable dry foams inside the vials under these experimental conditions were formed after 3 hours. After an additional 12 hours of drying at room temperature, the chamber was filled with the dry N2 gas and the rubber stoppers in a portion of the vials were pushed down. The vials were removed from the chamber and subsequently sealed with aluminum crimped seal. The samples were assayed right after drying and after 30 day of storage at 27.50 and 40° C. The results are shown in Table 1, together with the results obtained in the next experiment.
Another set of freeze-dried samples of Amphotericin B were rehydrated with 5 ml 40wt % sucrose per vial. The solutions were then transferred into sterilized glass vials for future preservation by drying similar to that described above with additional drying at 45° C. for additional 24 hours. After that, the chamber was filled again with the dry N2 gas, the rubber stoppers were pushed down and the vials were sealed. The samples were assayed right after drying and after 30 day of storage at 27.50 and 40° C.

## Urokinase
[1]; after 30 days of storage at 40° C.
  Urokinase activity, % of the initial activity: 90%
[1]; right after drying (max 45° C.)
  Urokinase activity, % of the initial activity: 93%

## C[C@@H]1[C@H](O)[C@@H](C)/C=C/C=C/C=C/C=C/C=C/C=C/C=C/[C@H](O[C@@H]2O[C@H](C)[C@@H](O)[C@H](N)[C@@H]2O)C[C@@H]2O[C@](O)(C[C@@H](O)C[C@@H](O)[C@H](O)CC[C@@H](O)C[C@@H](O)CC(=O)O[C@H]1C)C[C@H](O)[C@H]2C(=O)O [Amphotericin, Amphotericin B]
[2]; Freeze-dried control
  Potency of Amphotericin (%): 126%
[2]; Td = 25° C.
  Potency of Amphotericin (%) After 30 days of storage at 27.5° C.: 114%
[2]; Td = 25° C. (maximum temperature during drying)
  Potency of Amphotericin (%) After drying: 108%
[2]; Td = 45° C.
  Potency of Amphotericin (%) After 30 days of storage at 27.5° C.: 102%
  Potency of Amphotericin (%) After 30 days of storage at 40° C.: 104%
  Potency of Amphotericin (%) After drying: 103%

From patent US6509146B1, “Scalable long-term shelf preservation of sensitive biological solutions and suspensions” (Universal Preservation Technologies, Inc., priority 1996, dated 2003)
